Data reported in US10336730B2, “Substituted glycine derived FXIA inhibitors” (BRISTOL-MYERS SQUIBB COMPANY, priority 2015, dated 2019).

What was measured:
Assay type in all cases: biochemical
[1] = test system: citrated normal human plasma; test: Activated Partial Thromboplastin Time (aPTT) plasma clotting assay; details: inhibitor concentration required to increase the clotting time by 1.5 times
Description: The effectiveness of compounds of the present invention as inhibitors of coagulation can be determined using a standard or modified clotting assay. An increase in the plasma clotting time in the presence of inhibitor is indicative of anticoagulation. Relative clotting time is the clotting time in the presence of an inhibitor divided by the clotting time in the absence of an inhibitor. The results of this assay may be expressed as IC1.5× or IC2×, the inhibitor concentration required to increase the clotting time by 1.5 times or 2 times, respectively, relative to the clotting time in the absence of the inhibitor. The IC1.5× or IC2× is found by linear interpolation from relative clotting time versus inhibitor concentration plots using inhibitor concentrations that span the IC1.5× or IC2×.
Clotting times are determined using citrated normal human plasma as well as plasma obtained from a number of laboratory animal species (e.g., rat, or rabbit). A compound is diluted into plasma beginning with a 10 mM DMSO stock solution. The final concentration of DMSO is less than 2%. Plasma clotting assays are performed in an automated coagulation analyzer (Sysmex, Dade-Behring, Illinois). Similarly, clotting times can be determined from laboratory animal species or humans dosed with compounds of the invention.
Activated Partial Thromboplastin Time (aPTT) is determined using ACTIN® FSL (Dade-Behring, Illinois) following the directions in the package insert. Plasma (0.05 mL) is warmed to 37° C. for 1 minute. ACTIN® FSL (0.05 mL) is added to the plasma and incubated for an additional 2 to 5 minutes. Calcium chloride (25 mM, 0.05 mL) is added to the reaction to initiate coagulation. The clotting time is the time in seconds from the moment calcium chloride is added until a clot is detected.

[2] = molecular target: T1, purified human plasma kallikrein (Homo sapiens, UniProt P03952); test: Plasma kallikrein enzyme inhibition assay (chromogenic substrate S-2302), Ki; details: substrate S-2302, pH 7.5
T1 construct: purchased Enzyme Research Laboratories
Procedure: The effectiveness of compounds of the present invention as inhibitors of the coagulation Factors XIa, VIIa, IXa, Xa, XIIa, plasma kallikrein, thrombin, chemytrypsin or trypsin can be determined using a relevant purified serine protease, respectively, and an appropriate synthetic substrate. The rate of hydrolysis of the chromogenic or fluorogenic substrate by the relevant serine protease was measured both in the absence and presence of compounds of the present invention. […] A decrease in the rate of absorbance or fluorescence change in the presence of inhibitor is indicative of enzyme inhibition. Such methods are known to one skilled in the art. The results of this assay are expressed as the inhibitory constant, Ki.
Plasma kallikrein determinations were made in 0.1 M sodium phosphate buffer at a pH of 7.5 containing 0.1-0.2 M sodium chloride and 0.5% PEG 8000. Determinations were made using purified human plasma kallikrein (Enzyme Research Laboratories) at a final assay concentration of […] and the synthetic substrate S-2302 (H-(D)-Pro-Phe-Arg-pNA; CHROMOGENIX®) at a concentration of 0.00008-0.0004 M.
Values of Ki were determined by allowing the protease to react with the substrate in the presence of the inhibitor. Reactions were allowed to go for periods of 20-180 minutes (depending on the protease) and the velocities (rate of absorbance or fluorescence change versus time) were measured. The following relationships were used to calculate Ki values: (Vmax*S)/(Km+S) (vo−vs)/vs=I/(Ki*(1+S/Km)) for a competitive inhibitor with one binding site; or vs/vo=A+(B−A)/(1+(IC50/(I)^n)); and Ki=IC50/(1+S/Km) for a competitive inhibitor where: […]

[3] = molecular target: T2, purified human Factor XIa (Homo sapiens, UniProt P03951); test: Factor XIa enzyme inhibition assay (chromogenic substrate S-2366), Ki; details: substrate S-2366, pH 7.4
T2 construct: purchased Haematologic Technologies
Procedure, shortened: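 Purified human Factor XIa ([…] final) with chromogenic substrate S-2366 (0.0002-0.001 M) in 50 mM HEPES pH 7.4, 145 mM NaCl, 5 mM KCl, 0.1% PEG 8000. Velocities measured over 20-180 minutes with and without inhibitor; Ki derived assuming competitive inhibition, e.g. Ki=IC50/(1+S/Km).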

T2 sequence (P03951 388-625 limits assumed): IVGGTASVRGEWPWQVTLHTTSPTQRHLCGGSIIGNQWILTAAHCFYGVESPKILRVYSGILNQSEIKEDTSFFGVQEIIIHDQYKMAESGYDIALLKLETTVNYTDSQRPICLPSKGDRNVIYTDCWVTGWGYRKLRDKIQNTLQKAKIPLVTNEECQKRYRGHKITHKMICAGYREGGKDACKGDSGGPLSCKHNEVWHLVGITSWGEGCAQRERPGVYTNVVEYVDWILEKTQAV
T2 sequence (P03951 19-387 partner limits assumed): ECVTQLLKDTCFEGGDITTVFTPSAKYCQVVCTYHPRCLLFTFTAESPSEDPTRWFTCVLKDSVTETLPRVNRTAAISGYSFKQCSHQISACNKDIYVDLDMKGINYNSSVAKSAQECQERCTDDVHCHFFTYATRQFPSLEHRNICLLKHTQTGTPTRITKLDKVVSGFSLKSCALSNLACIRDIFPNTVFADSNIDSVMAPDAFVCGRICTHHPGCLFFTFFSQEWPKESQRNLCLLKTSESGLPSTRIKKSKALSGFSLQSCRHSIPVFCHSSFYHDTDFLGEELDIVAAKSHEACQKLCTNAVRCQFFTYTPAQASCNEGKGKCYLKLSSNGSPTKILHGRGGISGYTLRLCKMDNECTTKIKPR
T1 sequence (P03952 391-638 limits assumed): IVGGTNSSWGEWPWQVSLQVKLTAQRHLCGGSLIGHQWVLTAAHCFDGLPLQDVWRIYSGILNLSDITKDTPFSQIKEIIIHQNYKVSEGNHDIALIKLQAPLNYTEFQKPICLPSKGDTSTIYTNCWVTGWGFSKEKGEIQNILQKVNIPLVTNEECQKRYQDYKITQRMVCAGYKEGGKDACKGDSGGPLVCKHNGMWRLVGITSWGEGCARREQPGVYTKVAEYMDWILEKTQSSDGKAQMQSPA
T1 sequence (P03952 20-390 partner limits assumed): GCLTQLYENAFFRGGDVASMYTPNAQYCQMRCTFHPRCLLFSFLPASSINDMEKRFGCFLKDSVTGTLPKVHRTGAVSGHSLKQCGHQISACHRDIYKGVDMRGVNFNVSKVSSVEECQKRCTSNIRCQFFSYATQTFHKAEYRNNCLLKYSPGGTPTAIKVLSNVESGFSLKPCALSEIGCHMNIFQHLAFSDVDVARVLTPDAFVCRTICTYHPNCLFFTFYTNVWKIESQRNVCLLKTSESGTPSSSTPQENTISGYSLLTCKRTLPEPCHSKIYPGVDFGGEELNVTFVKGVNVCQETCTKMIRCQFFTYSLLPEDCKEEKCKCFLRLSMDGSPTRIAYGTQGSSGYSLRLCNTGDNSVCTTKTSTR

| Ki [2] [µM] | Ki [3] [µM] | Structure (SMILES) | aPTT (IC1.5×) [1] [µM] |
| --- | --- | --- | --- |
| 0.239 | 0.0031 | O=C(O)c1ccc(NC(=O)[C@H](Cc2ccccc2)n2cnc(-c3cc(Cl)ccc3-n3cc(C(F)(F)F)nn3)cc2=O)cc1 [Example 14, (S)-4-(2-(4-(5-chloro-2-(4-(trifluoromethyl)-1H-1,2,3-triazol-1-yl)phenyl)-6-oxopyrimidin-1(6H)-yl)-3-phenylpropanamido)benzoic Acid] | 1.85 |
| 0.189 | 0.0025 | O=C(O)c1ccc(NC(=O)[C@H](Cc2ccccc2)n2cnc(-c3cc(Cl)ccc3-n3cc(Cl)nn3)cc2=O)cc1 [Example 15, (S)-4-(2-(4-(5-chloro-2-(4-chloro-1H-1,2,3-triazol-1-yl)phenyl)-6-oxopyrimidin-1(6H)-yl)-3-phenylpropanamido)benzoic Acid] | 1.74 |
| 0.166 | 0.016 | O=C(Nc1ccc2cn[nH]c2c1)[C@H](Cc1ccccc1)n1cnc(-c2cc(Cl)ccc2-n2cc(Cl)nn2)cc1=O [Example 17, (S)-2-(4-(5-chloro-2-(4-chloro-1H-1,2,3-triazol-1-yl)phenyl)-6-oxopyrimidin-1(6H)-yl)-N-(1H-indazol-6-yl)-3-phenylpropanamide] | 17.6 |
| 1.87 | 0.199 | Cc1c(CC(C(=O)Nc2ccc(C(=O)O)cc2)N2CCC(c3c(F)ccc(Cl)c3F)=CC2=O)ccc2cn[nH]c12 (stereo not drawn) [Example 135, 4-(2-(4-(3-chloro-2,6-difluorophenyl)-6-oxo-3,6-dihydropyridin-1(2H)-yl)-3-(7-methyl-1H-indazol-6-yl)propanamido)benzoic Acid] | 1.74 |
